According to the NIST ThermoML archive (doi:10.1021/acs.jced.5b00592):
Numbers after ± are expanded uncertainties.

Conditions: 101.33 kPa, Liquid, Vibrating tube method

SMILES | mass density (293.15 K) [kg/m3] | mass density (303.15 K) [kg/m3] | mass density (313.15 K) [kg/m3] | mass density (323.15 K) [kg/m3] | mass density (333.15 K) [kg/m3] | mass density (343.15 K) [kg/m3] | mass density (353.15 K) [kg/m3] | mass density (288.15 K) [kg/m3] | mass density (298.15 K) [kg/m3] | mass density (308.15 K) [kg/m3] | mass density (318.15 K) [kg/m3] | mass density (328.15 K) [kg/m3] | mass density (338.15 K) [kg/m3] | mass density (348.15 K) [kg/m3]
CCC(=O)[O-].C[NH2+]CCO [2-hydroxy-N-methylethanaminium propionate] | 1068.13 ± 0.99 | 1061.16 ± 0.97 | 1054.19 ± 0.96 | 1047.12 ± 0.94 | 1039.96 ± 0.93 | 1032.71 ± 0.92 | 1025.34 ± 0.9 |  |  |  |  |  |  | 
CCCCCCCCn1cc[n+](C)c1.O=S(=O)([O-])C(F)(F)F [1-octyl-3-methylimidazolium trifluoromethanesulfonate] | 1197.12 ± 0.44 | 1189.64 ± 0.43 | 1182.17 ± 0.43 | 1174.72 ± 0.42 | 1167.34 ± 0.42 | 1159.99 ± 0.41 | 1152.68 ± 0.41 | 1200.83 ± 0.44 | 1193.39 ± 0.43 | 1185.9 ± 0.43 | 1178.44 ± 0.42 | 1171.02 ± 0.42 | 1163.66 ± 0.41 | 1156.33 ± 0.41
CCCC[n+]1ccn(C)c1.O=S(=O)([N-]S(=O)(=O)C(F)(F)F)C(F)(F)F | 1439.13 ± 4 | 1429.51 ± 4 | 1419.98 ± 4 | 1410.5 ± 4 | 1401.09 ± 4 | 1391.74 ± 4 | 1382.43 ± 4 | 1443.95 ± 4 | 1434.32 ± 4 | 1424.73 ± 4 | 1415.23 ± 4 | 1405.78 ± 4 | 1396.41 ± 4 | 1387.07 ± 4
CCCCCCCCn1cc[n+](C)c1.O=S(=O)([N-]S(=O)(=O)C(F)(F)F)C(F)(F)F | 1324.99 ± 0.54 | 1316.08 ± 0.53 | 1307.23 ± 0.52 | 1298.45 ± 0.52 | 1289.73 ± 0.51 | 1281.05 ± 0.5 | 1272.41 ± 0.5 | 1329.44 ± 0.54 | 1320.54 ± 0.53 | 1311.64 ± 0.53 | 1302.82 ± 0.52 | 1294.08 ± 0.51 | 1285.38 ± 0.51 | 1276.72 ± 0.5
CCCC[n+]1ccccc1.O=S(=O)([N-]S(=O)(=O)C(F)(F)F)C(F)(F)F [1-butylpyridinium bis[(trifluoromethyl)sulfonyl]imide] | 1452.97 ± 1.9 | 1443.6 ± 1.9 | 1434.25 ± 1.9 | 1425 ± 1.9 | 1415.82 ± 1.8 | 1406.74 ± 1.8 | 1397.61 ± 1.8 | 1457.74 ± 1.9 | 1448.23 ± 1.9 | 1438.91 ± 1.9 | 1429.62 ± 1.9 | 1420.41 ± 1.8 | 1411.23 ± 1.8 | 1402.15 ± 1.8
CCCC(=O)[O-].C[NH2+]CCO [N-methyl-2-hydroxyethylammonium butanoate] | 1038.03 ± 0.93 | 1031.04 ± 0.91 | 1024.03 ± 0.9 | 1016.9 ± 0.88 | 1009.68 ± 0.87 | 1002.38 ± 0.86 | 994.97 ± 0.84 |  |  |  |  |  |  | 
CC(=O)[O-].C[NH2+]CCO [N-methyl-2-hydroxyethylammonium acetate] | 1099.6 ± 1.1 | 1093 ± 1 | 1086.4 ± 1 | 1079.7 ± 1 | 1072.9 ± 1 | 1066.1 ± 1 | 1059.1 ± 1 |  |  |  |  |  |  | 
CCCCCCCCCCCCn1cc[n+](C)c1.O=S(=O)([N-]S(=O)(=O)C(F)(F)F)C(F)(F)F | 1234.45 ± 1.4 | 1225.93 ± 1.3 | 1217.48 ± 1.3 | 1209.09 ± 1.3 | 1200.8 ± 1.3 | 1192.54 ± 1.3 | 1184.33 ± 1.2 | 1238.73 ± 1.4 | 1230.2 ± 1.4 | 1221.7 ± 1.3 | 1213.28 ± 1.3 | 1204.95 ± 1.3 | 1196.67 ± 1.3 | 1188.43 ± 1.3
